Earlier results, collected in patent US4794170A (priority 1984, dated 1988).

Experiments:
virus B = settings: chronical hepatitis induced by virus B
hepatocytes = settings: mouse

Compound	virus replication (virus B)	hepatic targeting of ara-A (hepatocytes)
Nc1ncnc2c1ncn2[C@@H]1O[C@H](CO)[C@@H](O)[C@@H]1O [ara-A, adenine-9-beta-D-arabinoside]	inhibit the virus replication	
Nc1ncnc2c1ncn2[C@@H]1O[C@H](COP(=O)(O)O)[C@@H](O)[C@@H]1O [ara-AMP, adenine-9-beta-D-arabinofuranoside 5'monophosphate]	inhibit the virus replication	
ara-A-glut-AF: ara-A glutarate bonded to the asialofetuine (AF) through its hydroxysuccinimidic ester		pharmacologically active in producing in the mouse a hepatic targeting of ara-A
